Reference: ChEMBL document CHEMBL5465560, “Selectivity Literature for EUbOPEN Chemogenomic Library” (2024)
One block for each molecule: values may come before it.

Key:
[1] = target: Tyrosine-protein kinase Lck (Homo sapiens, UniProt P06239); test: Selectivity interaction (Panel of non-epigenetic targets (kinases, GPCRs, ion channels, and transporters, Eurofins) ) EUB0000271b LCK; conditions: at 1 µM
[2] = target: Proto-oncogene tyrosine-protein kinase Src (Homo sapiens, UniProt P12931); test: Selectivity interaction (Ambit KINOMEscan and KiNATiv profiling in Jurkat cells) EUB0000090b SRC; format: cell-based; conditions: at 1 µM
[3] = system: Tyrosine-protein kinase ABL1 (Homo sapiens), P00519 [H396P]; test: Selectivity interaction (KinomeScan (DiscoverX)) EUB0000618a ABL1; conditions: at 10 µM
[4] = target: T1, Serine/threonine-protein kinase DCLK3 (Homo sapiens) (UniProt Q9C098); test: Selectivity interaction (KinomeScan (DiscoverX)) EUB0000618a DCLK3; conditions: at 10 µM
T1 sequence (whole entry): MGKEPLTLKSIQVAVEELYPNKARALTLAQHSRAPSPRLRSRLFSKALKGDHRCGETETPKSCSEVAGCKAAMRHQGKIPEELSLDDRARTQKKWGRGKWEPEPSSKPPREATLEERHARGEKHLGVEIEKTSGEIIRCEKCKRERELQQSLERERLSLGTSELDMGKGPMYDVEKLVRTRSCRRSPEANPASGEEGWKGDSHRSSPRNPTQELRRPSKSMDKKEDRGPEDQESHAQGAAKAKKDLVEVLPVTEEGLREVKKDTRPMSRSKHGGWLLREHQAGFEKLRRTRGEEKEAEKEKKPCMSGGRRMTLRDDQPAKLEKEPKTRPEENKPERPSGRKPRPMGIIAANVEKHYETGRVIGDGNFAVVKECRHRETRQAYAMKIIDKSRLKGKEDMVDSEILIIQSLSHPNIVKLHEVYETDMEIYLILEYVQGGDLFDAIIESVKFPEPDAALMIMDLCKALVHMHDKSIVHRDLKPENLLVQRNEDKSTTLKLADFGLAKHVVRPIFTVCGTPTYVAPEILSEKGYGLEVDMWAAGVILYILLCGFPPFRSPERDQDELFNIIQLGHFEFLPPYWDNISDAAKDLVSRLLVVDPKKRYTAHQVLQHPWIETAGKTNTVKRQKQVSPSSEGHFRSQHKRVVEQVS

[5] = target: T2, Serine/threonine-protein kinase Nek9 (Homo sapiens) (UniProt Q8TD19); test: Selectivity interaction (KinomeScan (DiscoverX)) EUB0000607a NEK9; conditions: at 10 µM
T2 sequence (whole entry): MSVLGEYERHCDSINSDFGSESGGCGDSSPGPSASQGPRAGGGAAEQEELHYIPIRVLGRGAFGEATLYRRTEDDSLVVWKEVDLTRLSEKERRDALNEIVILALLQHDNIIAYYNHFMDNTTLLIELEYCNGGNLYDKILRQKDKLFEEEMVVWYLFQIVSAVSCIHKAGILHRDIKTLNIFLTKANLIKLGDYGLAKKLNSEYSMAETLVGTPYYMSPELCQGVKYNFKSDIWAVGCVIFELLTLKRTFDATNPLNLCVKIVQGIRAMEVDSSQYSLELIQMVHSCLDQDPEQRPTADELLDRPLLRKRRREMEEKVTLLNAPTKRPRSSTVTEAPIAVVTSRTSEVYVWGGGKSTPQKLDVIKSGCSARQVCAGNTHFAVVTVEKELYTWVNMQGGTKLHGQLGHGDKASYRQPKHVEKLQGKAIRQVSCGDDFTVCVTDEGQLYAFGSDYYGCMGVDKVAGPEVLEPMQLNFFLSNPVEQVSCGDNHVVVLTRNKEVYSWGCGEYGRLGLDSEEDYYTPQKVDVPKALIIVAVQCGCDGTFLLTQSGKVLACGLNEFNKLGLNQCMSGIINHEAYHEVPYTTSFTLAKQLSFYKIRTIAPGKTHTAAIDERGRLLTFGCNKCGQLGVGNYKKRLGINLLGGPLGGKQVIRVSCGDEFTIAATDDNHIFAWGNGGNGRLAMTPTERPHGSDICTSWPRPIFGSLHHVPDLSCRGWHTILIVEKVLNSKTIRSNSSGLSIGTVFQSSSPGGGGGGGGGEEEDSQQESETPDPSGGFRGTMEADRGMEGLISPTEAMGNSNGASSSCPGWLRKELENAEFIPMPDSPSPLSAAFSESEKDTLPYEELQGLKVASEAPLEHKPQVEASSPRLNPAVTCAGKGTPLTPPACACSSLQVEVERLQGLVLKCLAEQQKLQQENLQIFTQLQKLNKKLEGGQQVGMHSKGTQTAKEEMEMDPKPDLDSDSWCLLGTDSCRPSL

[6] = target: Protein arginine N-methyltransferase 5 (Homo sapiens, UniProt O14744); conditions: at 1 µM
[7] = target: Phosphatidylinositol 3-kinase catalytic subunit type 3 (Homo sapiens, UniProt Q8NEB9); test: Selectivity interaction (Kinase panel (KiNativ target engagement assay in Jurkat cells)) EUB0001635a PIK3C3; format: cell-based; conditions: Selectivity number of off-targets 0.0, Selectivity number of targets 233.0, Source Knowledge https://www.sciencedirect.com/science/article/pii/S2451945619300674?via%3Dihub, at 1 µM
[8] = target: Serine/threonine-protein kinase OSR1 (Homo sapiens) (UniProt O95747); test: Selectivity interaction (KinomeScan (DiscoverX)) EUB0000229b OXSR1; conditions: at 10 µM
[9] = system: Leucine-rich repeat serine/threonine-protein kinase 2 (Homo sapiens), Q5S007 [G2019S]; test: (§1) Selectivity interaction (KinomeScan (DiscoverX)) EUB0001049a LRRK2; conditions: at 1 µM
[10] = target: Leucine-rich repeat serine/threonine-protein kinase 2 (Homo sapiens, UniProt Q5S007); test: as §1; conditions: at 1 µM
[11] = target: T3, Megakaryocyte-associated tyrosine-protein kinase (Homo sapiens) (UniProt P42679); test: Selectivity interaction (Kinase panel (Z-LYTE Assay)) EUB0001632a MATK; conditions: at 10 µM
T3 sequence (whole entry): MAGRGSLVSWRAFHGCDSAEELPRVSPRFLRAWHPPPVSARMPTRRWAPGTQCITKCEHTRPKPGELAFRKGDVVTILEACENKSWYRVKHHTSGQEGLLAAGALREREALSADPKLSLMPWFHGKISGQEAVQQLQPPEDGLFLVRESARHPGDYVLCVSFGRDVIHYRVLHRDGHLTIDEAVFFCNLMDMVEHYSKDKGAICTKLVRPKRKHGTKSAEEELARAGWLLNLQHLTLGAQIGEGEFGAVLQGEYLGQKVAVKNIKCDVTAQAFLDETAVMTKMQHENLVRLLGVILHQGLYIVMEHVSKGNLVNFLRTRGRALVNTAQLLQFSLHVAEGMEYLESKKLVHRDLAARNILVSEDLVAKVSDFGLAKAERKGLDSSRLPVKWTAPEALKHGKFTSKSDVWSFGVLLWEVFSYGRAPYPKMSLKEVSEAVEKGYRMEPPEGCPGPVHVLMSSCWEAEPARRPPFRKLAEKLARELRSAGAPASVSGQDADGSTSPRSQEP

[12] = target: Mitogen-activated protein kinase 1 (Homo sapiens, UniProt P28482); test: Selectivity interaction (KinomeScan (DiscoverX)) EUB0000695a MAPK1; conditions: at 100 nM

Phosphatidylinositol 3-kinase catalytic subunit type 3, sequence (Q8NEB9 whole entry): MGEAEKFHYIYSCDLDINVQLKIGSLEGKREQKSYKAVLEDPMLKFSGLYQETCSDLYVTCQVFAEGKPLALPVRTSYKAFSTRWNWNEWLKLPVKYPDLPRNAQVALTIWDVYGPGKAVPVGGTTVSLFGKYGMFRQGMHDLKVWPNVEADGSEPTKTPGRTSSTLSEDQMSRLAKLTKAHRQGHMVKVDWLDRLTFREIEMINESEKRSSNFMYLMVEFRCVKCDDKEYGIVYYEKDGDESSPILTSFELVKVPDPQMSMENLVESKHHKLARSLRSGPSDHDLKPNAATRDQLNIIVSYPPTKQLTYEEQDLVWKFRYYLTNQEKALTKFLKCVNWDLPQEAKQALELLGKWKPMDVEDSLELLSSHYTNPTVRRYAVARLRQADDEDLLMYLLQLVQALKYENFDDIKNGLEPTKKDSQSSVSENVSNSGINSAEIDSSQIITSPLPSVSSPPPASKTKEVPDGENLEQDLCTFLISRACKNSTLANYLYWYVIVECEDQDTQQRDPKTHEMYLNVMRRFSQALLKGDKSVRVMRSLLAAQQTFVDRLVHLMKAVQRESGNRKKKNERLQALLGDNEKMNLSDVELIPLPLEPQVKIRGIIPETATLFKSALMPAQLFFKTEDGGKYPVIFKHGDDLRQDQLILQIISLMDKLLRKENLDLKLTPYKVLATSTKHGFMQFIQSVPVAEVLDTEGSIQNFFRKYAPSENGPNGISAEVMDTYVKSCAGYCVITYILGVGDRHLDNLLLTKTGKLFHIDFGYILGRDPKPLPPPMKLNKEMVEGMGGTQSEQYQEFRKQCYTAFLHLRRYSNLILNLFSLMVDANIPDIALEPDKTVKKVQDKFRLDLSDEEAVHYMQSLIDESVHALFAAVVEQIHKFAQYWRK
Serine/threonine-protein kinase OSR1 (Homo sapiens), sequence (O95747 2-527 limits assumed): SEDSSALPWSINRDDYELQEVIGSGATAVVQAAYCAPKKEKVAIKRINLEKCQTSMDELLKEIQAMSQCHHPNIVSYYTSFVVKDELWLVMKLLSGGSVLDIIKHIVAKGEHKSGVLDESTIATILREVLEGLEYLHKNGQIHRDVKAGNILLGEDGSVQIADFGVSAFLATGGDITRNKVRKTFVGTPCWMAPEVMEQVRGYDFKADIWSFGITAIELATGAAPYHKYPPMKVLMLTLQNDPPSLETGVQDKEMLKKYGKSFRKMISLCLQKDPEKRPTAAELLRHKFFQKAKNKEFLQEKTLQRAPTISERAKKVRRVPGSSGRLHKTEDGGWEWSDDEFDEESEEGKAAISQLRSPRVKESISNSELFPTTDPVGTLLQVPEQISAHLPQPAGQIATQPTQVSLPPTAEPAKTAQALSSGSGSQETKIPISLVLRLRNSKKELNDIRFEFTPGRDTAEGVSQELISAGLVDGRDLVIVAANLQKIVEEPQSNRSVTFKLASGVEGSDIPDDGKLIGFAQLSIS
Tyrosine-protein kinase Lck, sequence (P06239 2-509 limits assumed): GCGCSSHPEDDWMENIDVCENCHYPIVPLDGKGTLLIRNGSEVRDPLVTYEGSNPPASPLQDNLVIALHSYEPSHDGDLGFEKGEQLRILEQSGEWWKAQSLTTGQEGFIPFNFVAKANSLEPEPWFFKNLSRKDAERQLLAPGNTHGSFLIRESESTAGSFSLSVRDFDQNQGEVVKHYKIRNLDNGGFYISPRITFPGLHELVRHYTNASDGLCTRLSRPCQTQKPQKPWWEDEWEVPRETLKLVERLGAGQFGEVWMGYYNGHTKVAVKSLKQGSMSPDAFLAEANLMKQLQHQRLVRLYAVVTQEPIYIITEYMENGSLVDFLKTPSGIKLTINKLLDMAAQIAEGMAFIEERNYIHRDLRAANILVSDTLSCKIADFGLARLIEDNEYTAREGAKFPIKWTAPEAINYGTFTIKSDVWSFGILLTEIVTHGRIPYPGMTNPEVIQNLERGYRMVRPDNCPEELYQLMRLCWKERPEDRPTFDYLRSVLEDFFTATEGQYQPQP
Leucine-rich repeat serine/threonine-protein kinase 2 (Homo sapiens), Q5S007 [G2019S], sequence (Q5S007 whole entry G2019S): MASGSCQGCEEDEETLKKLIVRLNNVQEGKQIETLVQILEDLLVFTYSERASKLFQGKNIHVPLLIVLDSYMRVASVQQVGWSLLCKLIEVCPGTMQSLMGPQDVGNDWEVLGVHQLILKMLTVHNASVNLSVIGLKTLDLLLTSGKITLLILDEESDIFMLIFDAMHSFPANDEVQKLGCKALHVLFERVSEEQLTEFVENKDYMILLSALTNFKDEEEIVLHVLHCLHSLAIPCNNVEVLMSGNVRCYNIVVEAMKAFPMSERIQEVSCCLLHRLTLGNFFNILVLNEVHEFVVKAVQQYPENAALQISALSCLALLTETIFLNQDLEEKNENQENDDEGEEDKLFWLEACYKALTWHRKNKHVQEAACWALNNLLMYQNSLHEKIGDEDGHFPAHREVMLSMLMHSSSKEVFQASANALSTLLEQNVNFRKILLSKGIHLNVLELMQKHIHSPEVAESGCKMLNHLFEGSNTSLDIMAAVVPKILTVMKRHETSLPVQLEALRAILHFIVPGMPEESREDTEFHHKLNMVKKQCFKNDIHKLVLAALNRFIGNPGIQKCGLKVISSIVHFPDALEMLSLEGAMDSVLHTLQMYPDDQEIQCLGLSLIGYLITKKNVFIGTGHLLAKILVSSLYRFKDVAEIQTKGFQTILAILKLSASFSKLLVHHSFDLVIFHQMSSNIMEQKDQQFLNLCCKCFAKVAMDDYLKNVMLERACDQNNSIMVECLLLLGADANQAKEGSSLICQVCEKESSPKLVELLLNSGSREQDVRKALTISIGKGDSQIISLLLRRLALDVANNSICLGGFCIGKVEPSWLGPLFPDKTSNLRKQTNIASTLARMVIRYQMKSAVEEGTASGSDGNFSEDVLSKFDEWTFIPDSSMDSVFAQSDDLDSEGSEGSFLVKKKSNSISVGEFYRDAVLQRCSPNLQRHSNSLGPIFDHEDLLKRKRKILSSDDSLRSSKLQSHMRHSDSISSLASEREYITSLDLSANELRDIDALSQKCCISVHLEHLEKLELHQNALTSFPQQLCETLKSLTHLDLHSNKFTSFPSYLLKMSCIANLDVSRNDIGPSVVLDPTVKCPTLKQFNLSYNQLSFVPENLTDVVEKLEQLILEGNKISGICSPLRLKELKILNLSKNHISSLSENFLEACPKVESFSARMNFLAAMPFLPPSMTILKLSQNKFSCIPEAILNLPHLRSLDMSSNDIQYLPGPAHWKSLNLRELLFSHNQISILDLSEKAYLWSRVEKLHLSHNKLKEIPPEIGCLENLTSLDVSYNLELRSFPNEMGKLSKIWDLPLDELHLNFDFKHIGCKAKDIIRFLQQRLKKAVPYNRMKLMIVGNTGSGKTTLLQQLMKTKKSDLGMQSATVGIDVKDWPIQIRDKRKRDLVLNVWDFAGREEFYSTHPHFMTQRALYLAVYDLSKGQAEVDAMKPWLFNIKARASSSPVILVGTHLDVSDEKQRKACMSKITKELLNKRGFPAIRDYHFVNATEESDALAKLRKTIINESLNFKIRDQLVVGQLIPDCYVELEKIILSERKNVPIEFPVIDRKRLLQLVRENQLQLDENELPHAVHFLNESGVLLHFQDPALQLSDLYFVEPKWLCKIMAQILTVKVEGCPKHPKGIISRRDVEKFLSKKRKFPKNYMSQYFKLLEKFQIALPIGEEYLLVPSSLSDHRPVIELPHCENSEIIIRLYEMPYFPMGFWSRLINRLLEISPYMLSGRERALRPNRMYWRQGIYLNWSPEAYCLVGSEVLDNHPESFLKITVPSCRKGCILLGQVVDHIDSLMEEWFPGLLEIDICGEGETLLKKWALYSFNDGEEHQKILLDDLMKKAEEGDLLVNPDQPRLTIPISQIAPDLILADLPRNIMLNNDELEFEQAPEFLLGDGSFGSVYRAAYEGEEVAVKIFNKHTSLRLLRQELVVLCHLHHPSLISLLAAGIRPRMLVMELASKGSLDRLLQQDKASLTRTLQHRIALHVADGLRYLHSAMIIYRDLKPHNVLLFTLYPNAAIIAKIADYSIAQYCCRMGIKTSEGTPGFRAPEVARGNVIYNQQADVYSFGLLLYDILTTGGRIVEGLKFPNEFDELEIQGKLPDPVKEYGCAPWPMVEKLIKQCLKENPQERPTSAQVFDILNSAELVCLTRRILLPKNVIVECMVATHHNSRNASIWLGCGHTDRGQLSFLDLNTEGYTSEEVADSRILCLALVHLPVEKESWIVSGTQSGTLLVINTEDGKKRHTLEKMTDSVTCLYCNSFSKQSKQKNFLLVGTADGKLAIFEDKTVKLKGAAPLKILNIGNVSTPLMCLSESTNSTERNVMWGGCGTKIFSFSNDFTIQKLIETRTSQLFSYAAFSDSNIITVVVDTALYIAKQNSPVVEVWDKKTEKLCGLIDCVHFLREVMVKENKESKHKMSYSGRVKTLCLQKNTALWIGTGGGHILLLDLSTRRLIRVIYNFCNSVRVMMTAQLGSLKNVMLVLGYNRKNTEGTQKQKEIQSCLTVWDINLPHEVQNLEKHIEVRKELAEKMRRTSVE
Proto-oncogene tyrosine-protein kinase Src, sequence (P12931 2-536 limits assumed): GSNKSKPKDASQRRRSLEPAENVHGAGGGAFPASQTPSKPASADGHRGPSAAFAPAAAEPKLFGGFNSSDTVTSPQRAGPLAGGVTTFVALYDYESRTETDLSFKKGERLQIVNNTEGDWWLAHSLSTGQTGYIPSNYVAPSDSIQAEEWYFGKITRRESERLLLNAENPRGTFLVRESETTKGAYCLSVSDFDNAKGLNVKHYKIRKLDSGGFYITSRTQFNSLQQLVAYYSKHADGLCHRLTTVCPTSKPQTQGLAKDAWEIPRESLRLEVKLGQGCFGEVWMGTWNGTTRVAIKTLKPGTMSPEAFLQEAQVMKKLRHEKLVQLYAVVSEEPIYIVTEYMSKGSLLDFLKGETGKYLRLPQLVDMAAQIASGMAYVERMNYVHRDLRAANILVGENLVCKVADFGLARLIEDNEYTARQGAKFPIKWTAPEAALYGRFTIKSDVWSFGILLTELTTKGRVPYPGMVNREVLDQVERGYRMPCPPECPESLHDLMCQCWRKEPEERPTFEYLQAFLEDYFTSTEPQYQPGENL
Leucine-rich repeat serine/threonine-protein kinase 2, sequence (Q5S007 whole entry): as the sequence (Q5S007 whole entry G2019S) above, with S2019G counted along it

SMILES: Cc1cc(C)cc([C@@H]2c3cc(C)ccc3NC(=O)CN2C(=O)c2ccc(Br)s2)c1
% of inhibition [1]: 1%

SMILES: CN(C)C/C=C/C(=O)Nc1ccc(C(=O)N2CCCC(Nc3ncc(Cl)c(-c4c[nH]c5ccccc45)n3)C2)cc1 (configuration not stated)
% of control [2]: 90%

SMILES: O[C@H]1CC[C@H](Nc2ncc3nc(Nc4c(F)cc(F)cc4F)n([C@H]4CCOC4)c3n2)CC1
% of control [3]: 31%
% of control [4]: 98%

SMILES: CNC(=O)Nc1ccc(-c2nc(N3CC4CCC(C3)O4)c3cnn(C4CCC5(CC4)OCCO5)c3n2)cc1
% of control [5]: 100%

% activity [6]: > 90%
SMILES: CNCCN1CCC(c2cc(CN(C)C(=O)c3cccc(Oc4ccccc4)c3)ccn2)CC1

SMILES: C=CC(=O)Nc1ccc(C(=O)Nc2[nH]nc3c2CN(C(=O)N[C@H](CN(C)C)c2ccccc2)C3(C)C)cc1
% of engagement [7]: -19.8%

SMILES: COc1cc(N(C)c2ccnc3ccc(C(F)(F)F)cc23)cc(OC)c1OC
% binding [8]: 79%

SMILES: COc1cc(Nc2nc(C)cc(-c3cnn4nc(OC)ccc34)n2)cc(C(F)(F)F)c1
% of control [9]: 100%
% of control [10]: 100%

% of control [11]: 7.05%
SMILES: Cn1cc(-n2cnc3c(NCc4nc5cc(Cl)c(Cl)cc5[nH]4)nc(N4CCOCC4)nc32)cn1

SMILES: Cc1cc(F)c(C(=O)Nc2cccc(-c3nncn3C(C)C)n2)cc1-n1cnc(C2CC2)c1
% of control [12]: 98%
